Laboratory results taken from publication PMC10041525, “New Dual Inhibitors of Bacterial Topoisomerases with Broad-Spectrum Antibacterial Activity and In Vivo Efficacy against Vancomycin-Intermediate Staphylococcus aureus” (Journal of Medicinal Chemistry, 2023).
In brackets after ≈: the same amount, converted by molar mass. Read-outs that look alike come from different tables or passages of the source.

What was measured:
[1] = in vitro; type: in vitro ADME, mouse; conditions: male, CD-1, mouse; for fraction unbound at 4 h, 5 μM: plasma (pooled), mouse plasma, read-out: fu, fraction unbound; for recovery at 4 h, 5 μM: plasma protein binding assay
Description: The PPB studies were performed by Selvita d.o.o. (Zagreb, Croatia) in mouse plasma (CD-1 male, pooled, commercially obtained from BioIVT) via equilibrium dialysis. Compounds were assayed at 5 μM (0.5% DMSO) in two replicates, and incubation time was 4 h at 37 °C. Samples were taken at 0 min and 4 h. Aliquots from both buffer and plasma compartment matrix were matched and mixed with 6 volumes of STOP solution (acetonitrile/methanol (2:1) + internal standard – diclofenac) and analyzed by LC–MS/MS. Assay controls were caffeine (low), verapamil (moderate binding), and nicardipine (very high binding), and protein contamination was checked.

[2] = system: K. pneumoniae ATCC 10031; assay: MIC broth microdilution (CLSI); type: cell-based
Outline: (§1)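 CLSI broth microdilution in cation-adjusted Mueller Hinton broth 2, 5 × 10^4 cells per well, top inhibitor concentration 64 μg/mL (≤0.64% DMSO). Incubated 18 h at 37 °C with shaking at 150 rpm, triplicates; MIC is the lowest concentration keeping mean OD600 increment below 1.5-fold background.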

[3] = system: S. aureus (VISA) ATCC 700699; assay: MIC broth microdilution (CLSI); type: cell-based; conditions: Staphylococcus aureus
Outline: as §1

[4] = system: Enterobacter cloacae spp. cloacae ATCC 13047; assay: MIC broth microdilution (CLSI); type: cell-based; conditions: Enterobacter cloacae, ATCC13047
Outline: as §1

[5] = system: E. faecium ATCC 700221; assay: MIC broth microdilution (CLSI); type: cell-based
[6] = system: S. aureus (MRSA) ATCC 43300; assay: MIC broth microdilution (CLSI); type: cell-based
Outline: as §1

[7] = system: P. aeruginosa ATCC 27853; assay: MIC broth microdilution (CLSI); type: cell-based; conditions: Pseudomonas aeruginosa, ATCC27853
Outline: as §1

[8] = system: E. coli ATCC 25922; assay: MIC broth microdilution (CLSI); type: cell-based; conditions: Escherichia coli, ATCC25922
Outline: as §1

[9] = system: E. coli ATCC 35218; assay: IHMA QC MIC; type: cell-based
Description: (§2) The panel of Hungarian clinical isolates and controls measured following the same method as detailed above, and albeit measurements were carried out in 384-well microtiter plates (Corning Inc.).

[10] = system: 3 sensitive and 7 MDR A. baumannii clinical isolates; assay: MIC, Hungarian clinical isolates and controls (384-well); type: cell-based; conditions: n=10
[11] = system: A. baumannii ATCC 17978; assay: IHMA QC MIC; type: cell-based
Description: as §2

[12] = Klebsiella pneumoniae, ATCC10031, read-out: MIC
[13] = Enterococcus faecium, ATCC700221, read-out: MIC
[14] = Staphylococcus aureus; read-out: MIC
[15] = Staphylococcus aureus; read-out: MIC [µg/mL](S. aureus MRSA ATCC4330)
[16] = Escherichia coli, ATCC35218; read-out: MIC (QC, repeated tests)
[17] = Acinetobacter baumannii, ATCC17978; read-out: MIC (QC, repeated tests)

Row | Compound | MIC [2, 12] | MIC ([3]; read-out: MIC) | MIC ([4]; read-out: MIC) | MIC [5, 13] | MIC [6, 14] | MIC [6, 15] | MIC ([7]; read-out: MIC) | MIC ([8]; read-out: MIC) | further results
1 | Cc1[nH]c(C(=O)Nc2nc3c(N4CCOCC4C)cc(C(=O)O)cc3s2)c(Cl)c1Cl (stereo not drawn) [7b, 2-(3,4-Dichloro-5-methyl-1H-pyrrole-2-carboxamido)-4-(3-methylmorpholino)benzo[d]thiazole-6-carboxylic Acid] | 2 µg/mL | < 0.0312 µg/mL | 32 µg/mL | < 0.0312 µg/mL | < 0.0312 µg/mL | < 0.0312 µg/mL | 8 µg/mL | 8 µg/mL | fraction unbound at 4 h, 5 μM [1]: 0.013; recovery at 4 h, 5 μM [1]: 84.5%
2 | Cc1[nH]c(C(=O)Nc2nc3c(N4CCOC[C@H]4C)cc(C(=O)O)cc3s2)c(Cl)c1Cl [7c, (R)-2-(3,4-Dichloro-5-methyl-1H-pyrrole-2-carboxamido)-4-(3-methylmorpholino)benzo[d]thiazole-6-carboxylic Acid] | 1 µg/mL | 0.0625 µg/mL | > 64 µg/mL | < 0.0312 µg/mL | 0.125 µg/mL | 0.125 µg/mL | 8 µg/mL | 8 µg/mL | fraction unbound at 4 h, 5 μM [1]: 0.016; recovery at 4 h, 5 μM [1]: 93%
3 | Cc1[nH]c(C(=O)Nc2nc3c(N4CCOC[C@@H]4C)cc(C(=O)O)cc3s2)c(Cl)c1Cl [7d, (S)-2-(3,4-Dichloro-5-methyl-1H-pyrrole-2-carboxamido)-4-(3-methylmorpholino)benzo[d]thiazole-6-carboxylic Acid] | 2 µg/mL | 0.0625 µg/mL | > 64 µg/mL | < 0.0312 µg/mL | 0.125 µg/mL | 0.125 µg/mL | 8 µg/mL | 8 µg/mL | fraction unbound at 4 h, 5 μM [1]: 0.011; recovery at 4 h, 5 μM [1]: 89.5%
4 | Cc1[nH]c(C(=O)Nc2nc3c(N4CCOC(C)C4)cc(C(=O)O)cc3s2)c(Cl)c1Cl (stereo not drawn) [7e, 2-(3,4-Dichloro-5-methyl-1H-pyrrole-2-carboxamido)-4-(2-methylmorpholino)benzo[d]thiazole-6-carboxylic Acid] | 2 µg/mL | < 0.0312 µg/mL | > 64 µg/mL | < 0.0312 µg/mL | 0.0625 µg/mL | 0.0625 µg/mL | 16 µg/mL | 8 µg/mL | –
5 | Cc1[nH]c(C(=O)Nc2nc3c(N4CC(C)OC(C)C4)cc(C(=O)O)cc3s2)c(Cl)c1Cl (stereo not drawn) [7f, 2-(3,4-Dichloro-5-methyl-1H-pyrrole-2-carboxamido)-4-(2,6-dimethylmorpholino)benzo[d]thiazole-6-carboxylic Acid] | 8 µg/mL | < 0.0312 µg/mL | > 64 µg/mL | < 0.0312 µg/mL | < 0.0312 µg/mL | < 0.0312 µg/mL | 8 µg/mL | 8 µg/mL | –
6 | Cc1[nH]c(C(=O)Nc2nc3c(N4C[C@H]5CC[C@@H](C4)O5)cc(C(=O)O)cc3s2)c(Cl)c1Cl [7g, 4-((1R,5S)-8-Oxa-3-azabicyclo[3.2.1]octan-3-yl)-2-(3,4-dichloro-5-methyl-1H-pyrrole-2-carboxamido)benzo[d]thiazole-6-carboxylic Acid] | 2 µg/mL | < 0.0312 µg/mL | 16 µg/mL | < 0.0312 µg/mL | < 0.0312 µg/mL | < 0.0312 µg/mL | 2 µg/mL | 2 µg/mL | fraction unbound at 4 h, 5 μM [1]: 0.004; recovery at 4 h, 5 μM [1]: 93.5%
7 | Cc1[nH]c(C(=O)Nc2nc3c(N4CCOC(C(F)(F)F)C4)cc(C(=O)O)cc3s2)c(Cl)c1Cl (stereo not drawn) [7i, 2-(3,4-Dichloro-5-methyl-1H-pyrrole-2-carboxamido)-4-(2-(trifluoromethyl)morpholino)benzo[d]thiazole-6-carboxylic Acid] | – | – | – | – | – | – | – | – | fraction unbound at 4 h, 5 μM [1]: < 0.001; recovery at 4 h, 5 μM [1]: 110%; MIC ([2]; Klebsiella pneumoniae, ATCC10031): 4 µg/mL; MIC [3]: < 0.0312 µg/mL; MIC [4]: > 64 µg/mL; MIC ([5]; Enterococcus faecium, ATCC700221): < 0.0312 µg/mL; MIC ([6]; Staphylococcus aureus): < 0.0312 µg/mL; MIC ([6]; Staphylococcus aureus, read-out: MIC [µg/mL](S. aureus MRSA ATCC4330)): < 0.0312 µg/mL; MIC [7]: 4 µg/mL; MIC [8]: 16 µg/mL
8 | COCC1CCCN1c1cc(C(=O)O)cc2sc(NC(=O)c3[nH]c(C)c(Cl)c3Cl)nc12 (stereo not drawn) [7n, 2-(3,4-Dichloro-5-methyl-1H-pyrrole-2-carboxamido)-4-(2-(methoxymethyl)pyrrolidin-1-yl)benzo[d]thiazole-6-carboxylic Acid] | 8 µg/mL | 0.0625 µg/mL | > 64 µg/mL | < 0.0312 µg/mL | 0.0625 µg/mL | 0.0625 µg/mL | 8 µg/mL | 8 µg/mL | –
9 | COC[C@@H]1CCCN1c1cc(C(=O)O)cc2sc(NC(=O)c3[nH]c(C)c(Cl)c3Cl)nc12 [7o, (S)-2-(3,4-Dichloro-5-methyl-1H-pyrrole-2-carboxamido)-4-(2-(methoxymethyl)pyrrolidin-1-yl)benzo[d]thiazole-6-carboxylic Acid] | 16 µg/mL | 0.0625 µg/mL | > 64 µg/mL | < 0.0312 µg/mL | 0.0625 µg/mL | 0.0625 µg/mL | 16 µg/mL | 16 µg/mL | –
10 | Cc1[nH]c(C(=O)Nc2nc3c(N4CCC(O)CC4)cc(C(=O)O)cc3s2)c(Cl)c1Cl [7p, 2-(3,4-Dichloro-5-methyl-1H-pyrrole-2-carboxamido)-4-(4-hydroxypiperidin-1-yl)benzo[d]thiazole-6-carboxylic Acid] | 4 µg/mL | 0.5 µg/mL | > 64 µg/mL | < 0.0312 µg/mL | 4 µg/mL | 4 µg/mL | > 64 µg/mL | > 64 µg/mL | MIC [2]: 4 µg/mL
11 | Cc1[nH]c(C(=O)Nc2nc3c(N4CCOCC4)cc(C(=O)O)cc3s2)cc1Cl [16a, 2-(4-Chloro-5-methyl-1H-pyrrole-2-carboxamido)-4-morpholinobenzo[d]thiazole-6-carboxylic Acid] | 2 µg/mL | 0.5 µg/mL | > 64 µg/mL | 1 µg/mL | 2 µg/mL | 2 µg/mL | 64 µg/mL | > 64 µg/mL | MIC [2]: 2 µg/mL
12 | Cc1[nH]c(C(=O)Nc2nc3c(N4CCOCC4)cc(C(=O)O)cc3s2)cc1F [16b, 2-(4-Fluoro-5-methyl-1H-pyrrole-2-carboxamido)-4-morpholinobenzo[d]thiazole-6-carboxylic Acid] | – | 8 µg/mL | – | 2 µg/mL | 32 µg/mL | 32 µg/mL | – | > 64 µg/mL | MIC [5]: 2 µg/mL
13 | CO/N=C(\C(=O)N[C@@H]1C(=O)N2C(C(=O)[O-])=C(C[N+]3(C)CCCC3)CS[C@H]12)c1csc(N)n1 [Cefepime, cefepime] | – | – | – | – | – | – | – | – | MIC [9, 16]: ≤ 0.25 µg/mL; Cumulative % at MIC ([10]; MIC […] µg/mL): 20%
14 | C[C@@H](O)[C@H]1C(=O)N2C(C(=O)O)=C(SCCNC=N)C[C@H]12 [Imipenem, imipenem] | – | – | – | – | – | – | – | – | MIC [11, 17]: ≤ 0.25 µg/mL; MIC [9, 16]: ≤ 0.25 µg/mL; Cumulative % at MIC ([10]; MIC 0.5 µg/mL): 20%; Cumulative % at MIC ([10]; MIC 1 µg/mL): 30%; Cumulative % at MIC ([10]; MIC 64 µg/mL): 60%; Cumulative % at MIC ([10]; MIC 128 µg/mL): 80%; Cumulative % at MIC ([10]; MIC 256 µg/mL): 100%
15 | C[C@H]1COc2c(N3CCN(C)CC3)c(F)cc3c(=O)c(C(=O)O)cn1c23.C[C@H]1COc2c(N3CCN(C)CC3)c(F)cc3c(=O)c(C(=O)O)cn1c23.O [Levofloxacin, levofloxacin] | – | – | – | – | – | – | – | – | MIC ([11]; Acinetobacter baumannii, ATCC17978, read-out: MIC (QC, repeated tests)): ≤ 0.25 µg/mL; MIC ([9]; Escherichia coli, ATCC35218, read-out: MIC (QC, repeated tests)): ≤ 0.25 µg/mL; Cumulative % at MIC ([10]; MIC 0.0625 µg/mL): 30%
16 | C[C@@H](O)[C@H]1C(=O)N2C(C(=O)O)=C(S[C@@H]3CN[C@H](C(=O)N(C)C)C3)[C@H](C)[C@H]12 [Meropenem, meropenem] | – | – | – | – | – | – | – | – | MIC [9, 16]: ≤ 0.06 µg/mL; Cumulative % at MIC ([10]; MIC 1 µg/mL): 30%; Cumulative % at MIC ([10]; MIC 64 µg/mL): 100%; Cumulative % at MIC ([10]; MIC […]): 10%
17 | COc1c(N2C[C@@H]3CCCN[C@@H]3C2)c(F)cc2c(=O)c(C(=O)O)cn(C3CC3)c12 [Moxifloxacin, moxifloxacin] | – | – | – | – | – | – | – | – | MIC [11, 17]: ≤ 0.5 µg/mL; MIC [9, 16]: ≤ 0.5 µg/mL; Cumulative % at MIC ([10]; MIC 0.0625 µg/mL): 20%; Cumulative % at MIC ([10]; MIC 0.5 µg/mL): 30%; Cumulative % at MIC ([10]; MIC 32 µg/mL): 70%; Cumulative % at MIC ([10]; MIC 64 µg/mL): 100%
18 | CN(C)c1cc(NC(=O)CNC(C)(C)C)c(O)c2c1C[C@H]1C[C@H]3[C@H](N(C)C)C(O)=C(C(N)=O)C(=O)[C@@]3(O)C(O)=C1C2=O [Tigecycline, tigecycline] | – | – | – | – | – | – | – | – | MIC (QC, repeated tests) [11]: 0.5 µg/mL (≈ 0.854 µM); MIC [11, 17]: 0.25 µg/mL (≈ 0.427 µM); MIC [9, 16]: 0.12 µg/mL (≈ 0.205 µM)
19 | piperacillin/tazobactam [Piperacillin Tazobactam] | – | – | – | – | – | – | – | – | MIC (QC, repeated tests) [9]: 1 µg/mL
